Literature values as cited in patent US6391881B1, “Thiourea derivatives of dihydropyridine NPY antagonists” (Bristol-Myers Squibb Company, priority 2000, dated 2002).

Assays:
[1] = tested on: NPY-induced pressor response; settings: pithed rat
[2] = tested on: NPY-induced increase in intracellular Ca++ in SK-N-MG cells
[3] = target: T1, human neuroblastoma cells (SK-N-MC) (Homo sapiens, UniProt P25929)
T1 construct: displaces I-125 Bolton-Hunter labeled NPY in human neuroblastoma cells (SK-N-MC); host or cells: SK-N-MC human neuroblastoma cells (endogenous receptor; no transfection mentioned)
T1 sequence (P25929 1-384): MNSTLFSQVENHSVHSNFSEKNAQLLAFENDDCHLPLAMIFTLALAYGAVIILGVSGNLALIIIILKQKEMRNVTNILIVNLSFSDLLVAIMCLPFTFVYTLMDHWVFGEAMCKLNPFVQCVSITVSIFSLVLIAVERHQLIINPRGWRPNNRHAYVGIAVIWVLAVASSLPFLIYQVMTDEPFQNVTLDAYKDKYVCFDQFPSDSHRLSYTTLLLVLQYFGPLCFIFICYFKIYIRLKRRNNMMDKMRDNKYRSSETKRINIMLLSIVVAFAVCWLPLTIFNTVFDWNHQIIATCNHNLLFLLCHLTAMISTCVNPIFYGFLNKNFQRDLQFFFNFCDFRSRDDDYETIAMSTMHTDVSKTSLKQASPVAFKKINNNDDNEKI

[4] = tested on: NPY-induced contractions in guinea pig basilar artery
[5] = tested on: NPY-induced Ca++ entry in HEL cells
[6] = tested on: NPY-related increases in diastolic blood pressure; settings: anesthetized guinea pig model
[7] = target: T2, human neuroblastoma cells (Homo sapiens, UniProt P25929)
T2 construct: displacing I-125 labeled NPY and PYY in human neuroblastoma cells
T2 sequence (P25929 1-384): T1 sequence (P25929 1-384)

## NC(N)=NCCC[C@@H](NC(=O)C(c1ccccc1)c1ccccc1)C(=O)NCc1ccc(O)cc1 [BIBP 3226]
[1]
  antagonism of NPY-induced pressor response (in words): antagonizing
[2]
  antagonism of NPY-induced increase in intracellular Ca++ (in words): antagonized
[3]
  displacement of I-125 Bolton-Hunter labeled NPY (in words): displaces

## O=P(O)(O)OC1[C@H](OP(=O)(O)O)[C@H](O)C(O)[C@H](O)[C@H]1OP(=O)(O)O (stereo partly drawn) [D-Myo-inositol-1,2,6-triphosphate]
[4]
  antagonism of NPY-induced contractions (in words): potent but non-competitive antagonist

## N=C(NCCCc1cnc[nH]1)NCCC(c1cc(F)cc(F)c1)c1ccccn1 (centres unmarked) [He 90481]
[5]
  antagonism of NPY-induced Ca++ entry (in words): weak but competitive antagonist
  pA2, antagonism of NPY-induced Ca++ entry: 4.43

## CN(C)CC1CCC(CN=C(N)c2ccc(C[C@@H](NC(=O)[C@@H](Cc3ccccc3)NS(=O)(=O)c3ccc4ccccc4c3)C(=O)N3CCCC3)cc2)CC1 (some centres unmarked) [SR 120819A]
[6]
  antagonism of NPY-related increases in diastolic blood pressure (in words): antagonized
[7]
  displacement of I-125 labeled NPY and PYY (in words): displacing
